One compound from US20240050406A1, “COMPOSITION COMPRISING OXIRACETAM FOR PREVENTING OR TREATING MUSCULAR DISEASE” (KSB TUGEN INC., priority 2021, published 2024) can be followed below.

Data set [1] concerns DMD animal model. Briefly: Duchenne muscular dystrophy animal model (Experimental Example 6). The data set is classed as in vivo, mice (C57BL/10 ScSn-Dmdmdx/J). The settings on record: mdx mice, oxiracetam 30 mg/kg oral daily 35 days. The method, then: As experimental animals, 23-week-old male mice (C57BL/10 ScSn-Dmdmdx/J) were purchased from the Jackson Laboratory (USA) to conduct experiments. All animals were maintained under conditions of a temperature of 23±2° C. and a relative humidity of 55±10%. Before the initiation of the experiment, a total of 20 mice were randomly divided into groups of 10 animals. After adaptation for 1 week, 30 mg/kg of oxiracetam of Example 1 was orally administered daily for 35 days (drug-administered group, oxiracetam). Here, for the control (vehicle), instead of a sample, normal saline was orally administered.
For statistical analysis of the experiment, significant differences in mean values between groups were confirmed using a paired t-test, and p<0.05 is denoted as *, p<0.01 is denoted as **, p<0.001 is denoted as ***, and no significant difference is denoted as N.S. An error bar represents S.E.M.
Total lean body mass, body fat content (fat, %), the lean body mass of the gastrocnemius muscle (GS), and the lean body mass of the tibialis anterior (TA) were analyzed by dual energy X-ray absorptiometry (DEXA) every 7 days from the first day (day 0) of oral administration. Specifically, animal models of each group were anesthetized using 3% isoflurane, fixed to a photographing bed and then photographed. During photographing, the respiratory rates and body temperatures of the animal models were measured with an animal monitoring system (SA Instruments, USA).
The whole body of the animal model was photographed through dual energy X-ray absorptiometry (DEXA) using iNSiGHT VET DXA (Osteosys, KR), and the total lean body mass and the body fat content (fat, %) were analyzed. In addition, from the photographed images, the two-dimensional images of the gastrocnemius muscle (GS) and the tibialis anterior (TA) were assigned to the region of interest (ROI) using a program, and the lean body mass of each of the gastrocnemius muscle (GS) and the tibialis anterior (TA) was measured and calculated. Since the DEXA image can be used to measure and analyze the lean body mass, fat, and bone density of a mouse, it is possible to measure and calculate not only detailed lean body mass but also total lean body mass and body fat content (fat, %).
Grip strength was measured every 2 days from the first day (day 0) of oral administration. The measurement of the grip strength was performed using a grip strength meter for mice (BIOSEB), a mouse was placed on a wire mesh attached to a gauge capable of monitoring the strength, and the tail of the mouse was pulled downward to measure a force of grabbing the wire mesh. The average value was recorded by repeating measurement five consecutive times.
Body weights were measured every day from the first day (day 0) of oral administration.

Data set [2] deals with C2C12 myotubes. The data set can be described thus: Myotube diameter in TNF-α muscular atrophy cell model (Experimental Example 7). It is filed as cell-based, mouse. Here is the method:
A mouse-derived C2C12 cell line was provided from the American Type Culture Collection (ATCC, CRL-1772; Manassas, VA, USA) and cultured at 37° C. in 5% CO2. In the proliferation phase of the cells before differentiation, high concentration glucose Dulbecco's modified Eagle's medium (DMEM) containing 1% penicillin/streptomycin and 10% fetal bovine serum (FBS) medium were used, and in the differentiation induction, the FBS medium was replaced with a 2% horse serum (HS)-containing medium. The C2C12 myoblasts were seeded into a 96 well culture plate and a 6 well culture plate at 2×10^5/well and 5×10^3/well, respectively, and cultured at 37° C. in a CO2 incubator. When the confluency reached approximately 90%, the medium was replaced with 2% horse serum (HS)-containing DMEM to induce differentiation of myoblasts. After 5 days, the C2C12 myotubes that had differentiated were treated with 10 ng/ml TNF-α, which is an inflammatory factor, for 48 hours to cause myotube atrophy, thereby creating a muscular atrophy cell model, TNF-α-treated group (TNF-α). During the TNF-α treatment, 10 μM oxiracetam was treated to create an oxiracetam-treated group (Oxiracetam 10 μM), cells that were not treated during the same period were prepared as a control. Two days after TNF-α and oxiracetam treatment, each of the TNF-α-treated group (TNF-α), the oxiracetam-treated group (Oxiracetam 10 μM) and the control was treated with an ATP detection reagent at room temperature, and then luminescence was measured using a mitochondrial ToxGlo™ assay kit (Promega). In addition, the TNF-α-treated group (TNF-α), the oxiracetam-treated group (Oxiracetam 10 μM) and the control were photographed using an optical microscope and the diameter of a myotube cell in each group were measured and compared. Statistical processing was performed using GraphPad Prism (GraphPad Software Inc., San Diego, CA, USA).

Setting [3] is: day 35, compared to control (vehicle).

SMILES strings stand for the structures.

On to `NC(=O)CN1CC(O)CC1=O` (racemic) [oxiracetam, (RS)-2-(4-hydroxy-2-oxopyrrolidin-1-yl)acetamide], for which, in data set [1], the “change in body weight” value is recorded as “does not exhibit a significant effect”, the “change in grip strength” value was “significantly increased” and the “pseudohypertrophy (characteristic symptom of DMD)” value is reported as “reduced”. In addition, in data set [1] (compared to control), the “lean body mass of the gastrocnemius muscle (GS)” value is “significantly increased” and the “lean body mass of the tibialis anterior (TA)” value was “significantly increased”. Moreover, in data set [1] (setting [3]), the “body fat mass (fat, %)” value was “significantly reduced” and the “total lean body mass” value is “significantly increased”. Also, the “diameter of a myotube” value in data set [2] (TNF-α 10 ng/ml 48 h + oxiracetam 10 μM, compared to TNF-α-treated group) is listed as “significant increase”. The “diameter of a myotube relative to control” value in data set [2] (TNF-α 10 ng/ml 48 h with oxiracetam 10 μM or 0 μM, relative to non-treated control) is listed as “recovers to a level similar to the control”.
